Measured values taken from paper PMC3034713, “Targeting Vascular NADPH Oxidase 1 Blocks Tumor Angiogenesis through a PPARα Mediated Mechanism” (PLoS ONE, 2011).

Experiments:
NOX4 = target: T1, NOX4 (Homo sapiens, UniProt Q9NPH5); assay: NOX inhibition in cell free assay, membranes from cells overexpressing NOX4 (Amplex Red ROS); format: biochemical; conditions: cell-free, membranes from NOX4 over-expressing cells
T1 construct: expressed in transfected cells
Experimental: (§1) Membranes from NOX2 expressing PMN cells or from cells overexpressing NOX1 or NOX4 were prepared as previously described. After resuspension in sonication buffer (11% sucrose, 120 mM NaCl, 1 mM EGTA in PBS, pH 7.4 for NOX4-expressing cells) or in relax buffer (10 mM Pipes, 3 mM NaCl, 3.5 mM MgCl2, 0.1 M KCl, pH 7.4), cells were broken by sonication and centrifuged (200 g, 10 min). The supernatant was loaded onto a 17/40% (w/v) discontinuous sucrose gradient and centrifuged (150,000 g for 30 min). Membrane fractions were collected and stored at −80°C. ROS production measurements of membranes expressing different NOX subunits was determined as previously described using the Amplex Red method (Invitrogen).

NOX1 = target: T2, NOX1 (Homo sapiens, UniProt Q9Y5S8); assay: NOX inhibition in cell free assay, membranes from cells overexpressing NOX1 (Amplex Red ROS); format: biochemical; conditions: cell-free, membranes from NOX1 over-expressing cells
T2 construct: expressed in transfected cells
T2 sequence (Q9Y5S8 1-564): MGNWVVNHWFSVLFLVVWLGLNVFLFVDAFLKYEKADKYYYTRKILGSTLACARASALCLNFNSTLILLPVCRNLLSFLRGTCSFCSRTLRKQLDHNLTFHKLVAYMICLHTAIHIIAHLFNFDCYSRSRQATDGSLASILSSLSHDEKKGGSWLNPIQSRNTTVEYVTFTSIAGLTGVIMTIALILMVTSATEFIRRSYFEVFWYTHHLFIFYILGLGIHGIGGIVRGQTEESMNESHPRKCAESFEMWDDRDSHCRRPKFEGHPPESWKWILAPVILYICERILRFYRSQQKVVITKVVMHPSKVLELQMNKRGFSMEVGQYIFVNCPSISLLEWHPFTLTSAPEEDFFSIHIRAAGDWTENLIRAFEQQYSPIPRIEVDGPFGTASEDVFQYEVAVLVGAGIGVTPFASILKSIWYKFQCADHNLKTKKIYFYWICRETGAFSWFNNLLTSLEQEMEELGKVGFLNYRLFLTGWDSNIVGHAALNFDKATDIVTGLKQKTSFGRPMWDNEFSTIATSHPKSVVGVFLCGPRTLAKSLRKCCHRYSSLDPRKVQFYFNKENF
T2 sequence (P13498 2-195 partner limits assumed): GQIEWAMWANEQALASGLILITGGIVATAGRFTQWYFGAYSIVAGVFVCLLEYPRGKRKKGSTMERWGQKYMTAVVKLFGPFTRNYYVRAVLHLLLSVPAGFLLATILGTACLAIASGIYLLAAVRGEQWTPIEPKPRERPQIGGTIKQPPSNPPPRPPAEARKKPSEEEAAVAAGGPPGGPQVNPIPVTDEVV
Experimental: as §1

xanthine oxidase = xanthine oxidase (Homo sapiens, UniProt P47989); assay: Xanthine oxidase inhibition, concentration-response; format: biochemical
NOX2 = target: T3, NOX2 (Homo sapiens, UniProt P04839); assay: NOX inhibition in cell free assay, membranes from NOX2 expressing PMN cells (Amplex Red ROS); format: biochemical; conditions: cell-free, membranes from NOX2 expressing PMN cells
T3 construct: Membranes from NOX2 expressing PMN cells; endogenous in cells; host or cells: PMN cells
T3 sequence (P04839 2-570 limits assumed): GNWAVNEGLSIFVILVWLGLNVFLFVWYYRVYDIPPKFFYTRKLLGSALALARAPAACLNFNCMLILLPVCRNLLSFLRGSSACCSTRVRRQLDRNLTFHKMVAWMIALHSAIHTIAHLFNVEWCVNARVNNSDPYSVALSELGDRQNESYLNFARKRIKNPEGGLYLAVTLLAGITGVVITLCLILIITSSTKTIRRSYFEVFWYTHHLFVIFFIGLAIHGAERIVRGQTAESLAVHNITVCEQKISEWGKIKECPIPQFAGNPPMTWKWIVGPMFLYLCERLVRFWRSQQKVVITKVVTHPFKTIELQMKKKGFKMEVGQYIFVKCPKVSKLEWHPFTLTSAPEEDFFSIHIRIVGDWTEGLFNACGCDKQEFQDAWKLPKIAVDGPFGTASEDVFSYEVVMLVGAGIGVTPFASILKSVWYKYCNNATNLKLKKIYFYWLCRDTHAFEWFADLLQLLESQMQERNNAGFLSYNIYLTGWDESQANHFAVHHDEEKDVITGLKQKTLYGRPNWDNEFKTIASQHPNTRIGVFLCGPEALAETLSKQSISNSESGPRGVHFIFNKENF
T3 sequence (P13498 2-195 partner limits assumed): T2 sequence (P13498 2-195 partner limits assumed)
Experimental: as §1

[1] = test system: NOX1-silenced endothelial cell lines; assay: p65 NF-κB nuclear translocation after VEGF or bFGF stimulation (Western blot, immunofluorescence); format: cell-based, mouse; conditions: 10 µM before stimulation with VEGF and bFGF
Experimental: After stimulation, nuclear and cytoplasmic proteins of endothelial cells were extracted according to Tauzin et al.. Briefly, cells were incubated in TKM buffer (50 mM Tris-HCl pH 7.4, 25 mM KCl, 5 mM MgCl2 and 1 mM EGTA) containing 1% Triton and protease inhibitor cocktail CLAP [10 µg/ml chymostatin, leupeptin, antipain and pepstatin A (Sigma) for 30 minutes on ice, sonicated for 2 minutes and centrifuged at 5000 g for 30 minutes. The pellet and the supernatant were separated and solubilized in sample buffer.
Cells were stimulated for the indicated time and then lysed in TNT buffer (50 mM Tris, 150 mM NaCl, 0.5% Triton X-100) complemented with protease inhibitor cocktail CLAP and phosphatase inhibitor cocktail [25 mM NaF, 20 mM b-Glycerophosphate, 5 mM HEPES, 2.5 mM EDTA, 0.5 mM Orthovanadate]. Membranes were blocked in PBS containing 0.5% BSA and hybridized with different antibodies.

tEnd siRNA NOX1 = assay: Quantitative real-time PCR of target genes in NOX1-silenced endothelial cell line; format: cell-based, mouse
Experimental: Total RNA from treated cells was extracted using RNeasy minikit (Qiagen). Total RNA was reverse-transcribed with the Superscript III first strand RT-PCR kit (Invitrogen). Quantitative real-time PCR was performed using SybrGreen master mix (Applied Biosystems) on Step one plus Real-time PCR machine (Applied Biosystems). Primer sequences are listed in the Materials and Methods S1.
For mouse cells, siRNAs were nucleofected using the Amaxa technology (Lonza). Gene silencing was assessed 48 hours after nucleofection by quantitative RT-PCR. For HUVEC, shRNA vectors (SABiosciences) were nucleofected using Amaxa. Gene silencing was assessed 48 hours after nucleofection by quantitative RT-PCR.

MLEC [2] = assay: Wound healing assay (endothelial cell migration); format: cell-based, mouse; conditions: NOX1-deficient MLEC, 10 µM, compared to untreated NOX1-deficient cells
Experimental: Wound healing assay was performed as described previously. Briefly, endothelial cells were plated in Matrigel (Becton Dickinson) precoated 96 wells plates. One day after plating the cell monolayer was scratched to make a regular wound. Cells were allowed to migrate overnight. Migration area was then measured and calculated using the Metamorph program (MDS Analytical Technologies).

MLEC [3] = assay: Endothelial cell sprouting assay (tube-like structure formation, 3D culture); format: cell-based, mouse; conditions: NOX1-deficient MLEC, 10 µM, compared to untreated NOX1-deficient cells
Experimental: Sprouting assay was performed as described previously. Briefly, endothelial cells were plated in 96 well plates at 8,000 cells per well in a 3D fibrin gel. Above the gel, 10% FCS containing DMEM was complemented with 200 KIU/ml of Aprotinin (Sigma). Length of branches was evaluated using the Metamorph program. Results are expressed in mm of skeleton length/number of cells.

[4] = tEnd siRNA NOX1 + GW 6471, compared to control cells

Chain of xanthine oxidase (P47989 whole entry, species assumed): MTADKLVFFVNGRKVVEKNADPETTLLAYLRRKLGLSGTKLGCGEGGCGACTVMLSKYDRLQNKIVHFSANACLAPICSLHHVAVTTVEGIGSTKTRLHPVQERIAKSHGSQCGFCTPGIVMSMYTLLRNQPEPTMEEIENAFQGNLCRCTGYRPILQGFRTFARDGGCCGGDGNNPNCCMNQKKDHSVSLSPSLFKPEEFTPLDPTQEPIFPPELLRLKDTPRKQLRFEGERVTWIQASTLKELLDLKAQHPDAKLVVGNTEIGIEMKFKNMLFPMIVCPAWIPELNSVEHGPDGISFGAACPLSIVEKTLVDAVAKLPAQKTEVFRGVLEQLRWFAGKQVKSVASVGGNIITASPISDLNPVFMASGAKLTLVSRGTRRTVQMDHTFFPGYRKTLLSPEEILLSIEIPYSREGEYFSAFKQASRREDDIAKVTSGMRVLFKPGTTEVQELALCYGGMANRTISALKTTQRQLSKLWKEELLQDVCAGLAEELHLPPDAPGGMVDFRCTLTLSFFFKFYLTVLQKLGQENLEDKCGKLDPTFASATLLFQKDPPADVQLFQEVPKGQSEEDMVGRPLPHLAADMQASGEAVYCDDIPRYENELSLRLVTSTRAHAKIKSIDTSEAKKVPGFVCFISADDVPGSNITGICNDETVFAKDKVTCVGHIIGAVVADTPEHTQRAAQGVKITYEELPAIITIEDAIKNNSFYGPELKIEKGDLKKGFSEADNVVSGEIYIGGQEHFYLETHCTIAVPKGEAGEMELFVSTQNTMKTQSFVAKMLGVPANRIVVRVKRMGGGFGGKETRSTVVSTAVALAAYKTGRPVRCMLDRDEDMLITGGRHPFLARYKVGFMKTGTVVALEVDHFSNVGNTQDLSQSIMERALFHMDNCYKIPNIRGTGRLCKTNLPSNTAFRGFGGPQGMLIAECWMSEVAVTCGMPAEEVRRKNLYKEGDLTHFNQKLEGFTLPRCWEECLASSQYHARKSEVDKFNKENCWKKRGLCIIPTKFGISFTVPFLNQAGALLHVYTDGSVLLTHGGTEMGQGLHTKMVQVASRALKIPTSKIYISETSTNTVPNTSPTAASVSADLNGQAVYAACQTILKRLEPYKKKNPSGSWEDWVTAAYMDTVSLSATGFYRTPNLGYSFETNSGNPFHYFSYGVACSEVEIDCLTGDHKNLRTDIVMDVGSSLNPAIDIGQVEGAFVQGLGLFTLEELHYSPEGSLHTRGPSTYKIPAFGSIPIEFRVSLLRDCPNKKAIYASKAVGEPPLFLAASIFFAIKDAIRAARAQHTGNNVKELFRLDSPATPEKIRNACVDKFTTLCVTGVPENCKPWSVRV
T1 sequence (Q9NPH5 whole entry, species assumed, one chain of several): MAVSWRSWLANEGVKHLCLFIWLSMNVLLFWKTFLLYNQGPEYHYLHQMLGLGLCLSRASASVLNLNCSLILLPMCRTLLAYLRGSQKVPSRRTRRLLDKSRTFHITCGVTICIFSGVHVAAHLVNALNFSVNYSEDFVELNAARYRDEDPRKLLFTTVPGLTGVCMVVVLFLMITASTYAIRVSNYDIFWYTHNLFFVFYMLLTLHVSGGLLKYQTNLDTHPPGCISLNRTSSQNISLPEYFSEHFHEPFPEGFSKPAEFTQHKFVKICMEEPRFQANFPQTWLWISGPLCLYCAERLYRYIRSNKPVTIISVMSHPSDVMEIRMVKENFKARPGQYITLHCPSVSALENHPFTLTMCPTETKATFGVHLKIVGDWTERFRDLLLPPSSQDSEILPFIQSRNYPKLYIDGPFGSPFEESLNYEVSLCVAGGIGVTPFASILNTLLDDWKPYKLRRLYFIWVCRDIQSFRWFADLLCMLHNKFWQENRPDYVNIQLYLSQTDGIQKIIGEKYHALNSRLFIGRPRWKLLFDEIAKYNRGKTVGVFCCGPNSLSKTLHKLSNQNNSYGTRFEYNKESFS

SMILES | Ki (NOX4) [nM] | Ki (NOX1) [nM] | Ki (xanthine oxidase) [nM] | Ki (NOX2) [nM] | deficient nuclear translocation of NF-kB in NOX1-silenced cells [1] | PPARα up regulation in NOX1-silenced cells (tEnd siRNA NOX1; NOX1-silenced cells incubated with antagonist, data not shown) | Catalase expression, fold increase or decrease (tEnd siRNA NOX1; [4]) [fold] | GPX3 expression, fold increase or decrease (tEnd siRNA NOX1; [4]) [fold] | MMP-2 expression, fold increase or decrease (tEnd siRNA NOX1; [4]) [fold] | MMP-9 expression, fold increase or decrease (tEnd siRNA NOX1; [4]) [fold] | VCAM-1 expression, fold increase or decrease (tEnd siRNA NOX1; [4]) [fold] | VE-cadherin expression, fold increase or decrease (tEnd siRNA NOX1; [4]) [fold] | VEGF expression, fold increase or decrease (tEnd siRNA NOX1; [4]) [fold] | bFGF expression, fold increase or decrease (tEnd siRNA NOX1; [4]) [fold] | uPAR expression, fold increase or decrease (tEnd siRNA NOX1; [4]) [fold] | cell migration of NOX1-deficient MLEC (MLEC [2]) | tube formation of NOX1-deficient MLEC (MLEC [3])
c1ccc([I+]c2ccccc2)cc1 [DPI, Diphenyliodonium, reference compound] | 70 | 70 ± 10 | 50 | 70 | – | – | – | – | – | – | – | – | – | – | – | – | –
CCC(=O)NC[C@H](Cc1ccc(OCCc2nc(-c3ccccc3)oc2C)cc1)N/C(C)=C\C(=O)c1ccc(C(F)(F)F)cc1 [GW6471] | – | – | – | – | no longer observed | no longer observed | 0.92±0.012 | 0.70±0.01 | 2.13±0.24 | 0.47±0.07 | 0.57±0.18 | 0.9±0.2 | 0.68±0.04 | 0.64±0.25 | 1.34±0.6 | restored | restored
